Experimental data published in BigSolDB 2.1.

O=C(O)CC[C@H](NC(=O)OCC1c2ccccc2-c2ccccc21)C(=O)O
solubility (mole fraction) (in 2-butanone, 283.15 K): 0.0112
solubility (mole fraction) (in 2-butanone, 288.15 K): 0.0112
solubility (mole fraction) (in 2-butanone, 293.15 K): 0.012
solubility (mole fraction) (in 2-butanone, 298.15 K): 0.0127
solubility (mole fraction) (in 2-butanone, 303.15 K): 0.0136
solubility (mole fraction) (in 2-butanone, 308.15 K): 0.0143
solubility (mole fraction) (in 2-butanone, 313.15 K): 0.0157
solubility (mole fraction) (in 2-butanone, 318.15 K): 0.0176
solubility (mole fraction) (in 2-butanone, 323.15 K): 0.0191
solubility (mole fraction) (in acetone, 283.15 K): 0.0243
solubility (mole fraction) (in acetone, 288.15 K): 0.0261
solubility (mole fraction) (in acetone, 293.15 K): 0.0274
solubility (mole fraction) (in acetone, 298.15 K): 0.0295
solubility (mole fraction) (in acetone, 303.15 K): 0.0323
solubility (mole fraction) (in acetone, 308.15 K): 0.0342
solubility (mole fraction) (in acetone, 313.15 K): 0.0393
solubility (mole fraction) (in acetone, 318.15 K): 0.0437
solubility (mole fraction) (in acetone, 323.15 K): 0.0471
solubility (mole fraction) (in acetonitrile, 283.15 K): 0.000662
solubility (mole fraction) (in acetonitrile, 288.15 K): 0.000708
solubility (mole fraction) (in acetonitrile, 293.15 K): 0.0008
solubility (mole fraction) (in acetonitrile, 298.15 K): 0.000997
solubility (mole fraction) (in acetonitrile, 303.15 K): 0.00123
solubility (mole fraction) (in acetonitrile, 308.15 K): 0.00139
solubility (mole fraction) (in acetonitrile, 313.15 K): 0.00166
solubility (mole fraction) (in acetonitrile, 318.15 K): 0.00194
solubility (mole fraction) (in acetonitrile, 323.15 K): 0.00232
solubility (mole fraction) (in dimethyl carbonate, 283.15 K): 0.00058
solubility (mole fraction) (in dimethyl carbonate, 288.15 K): 0.000625
solubility (mole fraction) (in dimethyl carbonate, 293.15 K): 0.000736
solubility (mole fraction) (in dimethyl carbonate, 298.15 K): 0.000819
solubility (mole fraction) (in dimethyl carbonate, 303.15 K): 0.000911
solubility (mole fraction) (in dimethyl carbonate, 308.15 K): 0.00108
solubility (mole fraction) (in dimethyl carbonate, 313.15 K): 0.00123
solubility (mole fraction) (in dimethyl carbonate, 318.15 K): 0.00157
solubility (mole fraction) (in dimethyl carbonate, 323.15 K): 0.00186
solubility (mole fraction) (in ethanol, 283.15 K): 0.0231
solubility (mole fraction) (in ethanol, 288.15 K): 0.0257
solubility (mole fraction) (in ethanol, 293.15 K): 0.0276
solubility (mole fraction) (in ethanol, 298.15 K): 0.0319
solubility (mole fraction) (in ethanol, 303.15 K): 0.0371
solubility (mole fraction) (in ethanol, 308.15 K): 0.0419
solubility (mole fraction) (in ethanol, 313.15 K): 0.0468
solubility (mole fraction) (in ethanol, 318.15 K): 0.0514
solubility (mole fraction) (in ethanol, 323.15 K): 0.0598
solubility (mole fraction) (in ethyl acetate, 283.15 K): 0.00239
solubility (mole fraction) (in ethyl acetate, 288.15 K): 0.0026
solubility (mole fraction) (in ethyl acetate, 293.15 K): 0.00296
solubility (mole fraction) (in ethyl acetate, 298.15 K): 0.00318
solubility (mole fraction) (in ethyl acetate, 303.15 K): 0.00347
solubility (mole fraction) (in ethyl acetate, 308.15 K): 0.00391
solubility (mole fraction) (in ethyl acetate, 313.15 K): 0.00451
solubility (mole fraction) (in ethyl acetate, 318.15 K): 0.00498
solubility (mole fraction) (in ethyl acetate, 323.15 K): 0.0056
solubility (mole fraction) (in isopropanol, 283.15 K): 0.0139
solubility (mole fraction) (in isopropanol, 288.15 K): 0.0142
solubility (mole fraction) (in isopropanol, 293.15 K): 0.0156
solubility (mole fraction) (in isopropanol, 298.15 K): 0.0175
solubility (mole fraction) (in isopropanol, 303.15 K): 0.0199
solubility (mole fraction) (in isopropanol, 308.15 K): 0.0238
solubility (mole fraction) (in isopropanol, 313.15 K): 0.0269
solubility (mole fraction) (in isopropanol, 318.15 K): 0.0302
solubility (mole fraction) (in isopropanol, 323.15 K): 0.0351
solubility (mole fraction) (in methanol, 283.15 K): 0.0246
solubility (mole fraction) (in methanol, 288.15 K): 0.0266
solubility (mole fraction) (in methanol, 293.15 K): 0.0295
solubility (mole fraction) (in methanol, 298.15 K): 0.0325
solubility (mole fraction) (in methanol, 303.15 K): 0.0364
solubility (mole fraction) (in methanol, 308.15 K): 0.0413
solubility (mole fraction) (in methanol, 313.15 K): 0.0471
solubility (mole fraction) (in methanol, 318.15 K): 0.0525
solubility (mole fraction) (in methanol, 323.15 K): 0.0611
solubility (mole fraction) (in methyl acetate, 283.15 K): 0.00319
solubility (mole fraction) (in methyl acetate, 288.15 K): 0.00355
solubility (mole fraction) (in methyl acetate, 293.15 K): 0.00388
solubility (mole fraction) (in methyl acetate, 298.15 K): 0.00418
solubility (mole fraction) (in methyl acetate, 303.15 K): 0.00473
solubility (mole fraction) (in methyl acetate, 308.15 K): 0.00535
solubility (mole fraction) (in methyl acetate, 313.15 K): 0.00609
solubility (mole fraction) (in methyl acetate, 318.15 K): 0.00726
solubility (mole fraction) (in methyl acetate, 323.15 K): 0.00888
solubility (mole fraction) (in n-butanol, 283.15 K): 0.00911
solubility (mole fraction) (in n-butanol, 288.15 K): 0.00972
solubility (mole fraction) (in n-butanol, 293.15 K): 0.0102
solubility (mole fraction) (in n-butanol, 298.15 K): 0.0114
solubility (mole fraction) (in n-butanol, 303.15 K): 0.0127
solubility (mole fraction) (in n-butanol, 308.15 K): 0.0141
solubility (mole fraction) (in n-butanol, 313.15 K): 0.016
solubility (mole fraction) (in n-butanol, 318.15 K): 0.0173
solubility (mole fraction) (in n-butanol, 323.15 K): 0.0199
solubility (mole fraction) (in n-butyl acetate, 283.15 K): 0.00177
solubility (mole fraction) (in n-butyl acetate, 288.15 K): 0.00182
solubility (mole fraction) (in n-butyl acetate, 293.15 K): 0.00204
solubility (mole fraction) (in n-butyl acetate, 298.15 K): 0.0022
solubility (mole fraction) (in n-butyl acetate, 303.15 K): 0.00238
solubility (mole fraction) (in n-butyl acetate, 308.15 K): 0.00269
solubility (mole fraction) (in n-butyl acetate, 313.15 K): 0.00309
solubility (mole fraction) (in n-butyl acetate, 318.15 K): 0.0034
solubility (mole fraction) (in n-butyl acetate, 323.15 K): 0.00381
solubility (mole fraction) (in n-pentanol, 283.15 K): 0.00655
solubility (mole fraction) (in n-pentanol, 288.15 K): 0.00765
solubility (mole fraction) (in n-pentanol, 293.15 K): 0.00845
solubility (mole fraction) (in n-pentanol, 298.15 K): 0.00993
solubility (mole fraction) (in n-pentanol, 303.15 K): 0.0112
solubility (mole fraction) (in n-pentanol, 308.15 K): 0.0128
solubility (mole fraction) (in n-pentanol, 313.15 K): 0.0159
solubility (mole fraction) (in n-pentanol, 318.15 K): 0.0187
solubility (mole fraction) (in n-pentanol, 323.15 K): 0.0221
solubility (mole fraction) (in n-propanol, 283.15 K): 0.0138
solubility (mole fraction) (in n-propanol, 288.15 K): 0.0146
solubility (mole fraction) (in n-propanol, 293.15 K): 0.0155
solubility (mole fraction) (in n-propanol, 298.15 K): 0.0172
solubility (mole fraction) (in n-propanol, 303.15 K): 0.02
solubility (mole fraction) (in n-propanol, 308.15 K): 0.0237
solubility (mole fraction) (in n-propanol, 313.15 K): 0.0258
solubility (mole fraction) (in n-propanol, 318.15 K): 0.03
solubility (mole fraction) (in n-propanol, 323.15 K): 0.0333
solubility (mole fraction) (in n-propyl acetate, 283.15 K): 0.0016
solubility (mole fraction) (in n-propyl acetate, 288.15 K): 0.00169
solubility (mole fraction) (in n-propyl acetate, 293.15 K): 0.00192
solubility (mole fraction) (in n-propyl acetate, 298.15 K): 0.00204
solubility (mole fraction) (in n-propyl acetate, 303.15 K): 0.00232
solubility (mole fraction) (in n-propyl acetate, 308.15 K): 0.00247
solubility (mole fraction) (in n-propyl acetate, 313.15 K): 0.00281
solubility (mole fraction) (in n-propyl acetate, 318.15 K): 0.00317
solubility (mole fraction) (in n-propyl acetate, 323.15 K): 0.00355
